Experiments:
YKL-40 (CHI3L1) = assay: Plasma biomarker YKL-40; type: in vivo, human; details: for YKL-40 (CHI3L1) raw data, Mean (SD) / YKL-40 (CHI3L1) least square means % baseline±SEM: IPF patients
Protocol: All patients, investigators, sites and study sponsor personnel were blinded to the study group assignments throughout the study. Patients underwent study-specific assessments on days 2, 3, 7, 14 and 15, and a post-study assessment was carried out 26–30 days after the last day of the study period. Assessments included vital signs (supine blood pressure, pulse, oxygen saturation, oral temperature and respiratory rate), spirometry, 12-lead ECG, physical examination, laboratory safety screen (haematology, biochemistry, urinalysis and urinary drugs of abuse screen) and blood sampling for PK measurements. All adverse events and concomitant medications were recorded from the time of the screening visit until the post-study follow-up visit. BAL was performed at day −1 (24 h before the first dose) and at day 14 (2 h after the last dose). The BAL procedure was performed as per international guidelines. Briefly, 240 mL of 0.9% saline at room temperature was instilled in 40 mL aliquots into the right middle lobe and aspirated by suction after each aliquot.
BAL cells were separated from fluid by centrifugation, and cells were collected, stained with antibodies (supplementary material) and then fixed before analysis using a LSR Fortessa flow cytometer (Becton Dickinson, Franklin Lakes, NJ, USA). Data were analysed using FlowJo software (Tree Star, Ashland, OR, USA). Macrophages were identified as having high side scatter properties and human leukocyte antigen-DR positivity. Gal-3 expression (mean fluorescence intensity) was determined from the macrophage gate (supplementary figures S1 and S2). […] Samples were analysed by magnetic Luminex assay (R&D Systems, Minneapolis, MN, USA) or ELISA.
For part 2 of the study, placebos were combined from the three dose-specific cohorts into a pooled control group (n=9). For alveolar macrophage Gal-3 expression and the plasma biomarkers, ANCOVA was performed for percentage of baseline ((day 14/day 1)×100). The ANCOVA model included effects for treatment group and baseline (day 1) value. […] An additional analysis including dose as a continuous covariate was also performed. The Pearson correlation coefficient (r) and associated p-value were calculated for percentage of baseline and day 14 values between plasma biomarkers and alveolar macrophage Gal-3 expression. […] The analysis is exploratory and there was no pre-planned adjustment for multiple testing; the study was not powered for this. Alveolar macrophage Gal-3 expression was considered the primary exploratory analysis with the pre-selected biomarkers secondary. A Bonferroni correction for multiple testing of the secondary end-points comparing the 10 mg group with placebo gives a critical value of 0.0063. Data are presented as the difference in least square means with 95% confidence interval and p-value unless otherwise stated. All analyses were performed using SAS version 9.4 (SAS Institute, Cary, NC, USA). […]

patients with IPF = assay: Safety and tolerability (TEAEs), part 2, once-daily inhaled dose for 14 days; type: in vivo, human
Description: Following completion of dosing for the final subject in each dosing cohort, an interim dose review meeting was held with a safety committee consisting of the principal investigator, medical monitor, pharmacokineticist and statistician to review the safety, tolerability and PK data (study design schematic shown in figure 1). The study statistician and pharmacokineticist were unblinded at the end of each cohort in order to conduct the analyses required for dose review decisions. The primary end-point was the safety and tolerability of single or multiple doses of TD139 in healthy subjects or IPF patients, respectively.

[1] = IPF patients, inhaled 0.3 mg once daily 14 days
[2] = IPF patients, inhaled 3 mg once daily 14 days
[3] = IPF patients, inhaled 10 mg once daily 14 days

SMILES: OC[C@H]1O[C@@H](S[C@@H]2O[C@H](CO)[C@H](O)[C@H](n3cc(-c4cccc(F)c4)nn3)[C@H]2O)[C@H](O)[C@@H](n2cc(-c3cccc(F)c3)nn2)[C@H]1O [TD139]
- YKL-40 (CHI3L1) difference in least square means % baseline (95% CI) (YKL-40 (CHI3L1); 10 mg vs placebo, ANCOVA): −28.9 (−55.9– −1.9) % baseline
- YKL-40 (CHI3L1) raw data, Mean (SD) (YKL-40 (CHI3L1); Day 14, 0.3 mg): 45140.2 (34041.85) pg/ml
- YKL-40 (CHI3L1) raw data, Mean (SD) (YKL-40 (CHI3L1); Day 14, 3 mg): 146819.5 (40114.19) pg/ml
- YKL-40 (CHI3L1) raw data, Mean (SD) (YKL-40 (CHI3L1); Day 14, 10 mg): 79975.5 (38590.77) pg/ml
- YKL-40 (CHI3L1) least square means % baseline±SEM (YKL-40 (CHI3L1); day 14, 0.3 mg once daily): 84.1±12.5 % baseline
- YKL-40 (CHI3L1) least square means % baseline±SEM (YKL-40 (CHI3L1); day 14, 3 mg once daily): 50.2±18.6 % baseline
- YKL-40 (CHI3L1) least square means % baseline±SEM (YKL-40 (CHI3L1); day 14, 10 mg once daily): 51.6±10.4 % baseline
- Subjects reporting ≥1 TEAE: Serious TEAE (patients with IPF; [1]): 0 n (%)
- Subjects reporting ≥1 TEAE: TEAE (patients with IPF; [1]): 4 (80.0) n (%)
- Subjects reporting ≥1 TEAE: TEAE leading to withdrawal (patients with IPF; [1]): 0 n (%)
- Subjects with TEAE by relationship to study IMP: Almost definite (patients with IPF; [1]): 0 n (%)
- Subjects with TEAE by relationship to study IMP: Possible (patients with IPF; [1]): 1 (20.0) n (%)
- Subjects with TEAE by relationship to study IMP: Probable (patients with IPF; [1]): 0 n (%)
- Subjects with TEAE by relationship to study IMP: Unlikely (patients with IPF; [1]): 1 (20.0) n (%)
- Subjects with TEAE by relationship to study IMP: Unrelated (patients with IPF; [1]): 2 (40.0) n (%)
- Subjects with TEAE by severity: Mild (patients with IPF; [1]): 2 (40.0) n (%)
- Subjects with TEAE by severity: Moderate (patients with IPF; [1]): 2 (40.0) n (%)
- Subjects with TEAE by severity: Severe (patients with IPF; [1]): 0 n (%)
- TEAEs (patients with IPF; [1]): 9 n
- Subjects reporting ≥1 TEAE: Serious TEAE (patients with IPF; [2]): 0 n (%)
- Subjects reporting ≥1 TEAE: TEAE (patients with IPF; [2]): 5 (100.0) n (%)
- Subjects reporting ≥1 TEAE: TEAE leading to withdrawal (patients with IPF; [2]): 0 n (%)
- Subjects with TEAE by relationship to study IMP: Almost definite (patients with IPF; [2]): 0 n (%)
- Subjects with TEAE by relationship to study IMP: Possible (patients with IPF; [2]): 1 (20.0) n (%)
- Subjects with TEAE by relationship to study IMP: Probable (patients with IPF; [2]): 0 n (%)
- Subjects with TEAE by relationship to study IMP: Unlikely (patients with IPF; [2]): 1 (20.0) n (%)
- Subjects with TEAE by relationship to study IMP: Unrelated (patients with IPF; [2]): 3 (60.0) n (%)
- Subjects with TEAE by severity: Mild (patients with IPF; [2]): 4 (80.0) n (%)
- Subjects with TEAE by severity: Moderate (patients with IPF; [2]): 1 (20.0) n (%)
- Subjects with TEAE by severity: Severe (patients with IPF; [2]): 0 n (%)
- TEAEs (patients with IPF; [2]): 10 n
- Subjects reporting ≥1 TEAE: Serious TEAE (patients with IPF; [3]): 1 (20.0) n (%)
- Subjects reporting ≥1 TEAE: TEAE (patients with IPF; [3]): 4 (80.0) n (%)
- Subjects reporting ≥1 TEAE: TEAE leading to withdrawal (patients with IPF; [3]): 0 n (%)
- Subjects with TEAE by relationship to study IMP: Almost definite (patients with IPF; [3]): 0 n (%)
- Subjects with TEAE by relationship to study IMP: Possible (patients with IPF; [3]): 0 n (%)
- Subjects with TEAE by relationship to study IMP: Probable (patients with IPF; [3]): 0 n (%)
- Subjects with TEAE by relationship to study IMP: Unlikely (patients with IPF; [3]): 2 (40.0) n (%)
- Subjects with TEAE by relationship to study IMP: Unrelated (patients with IPF; [3]): 2 (40.0) n (%)
- Subjects with TEAE by severity: Mild (patients with IPF; [3]): 1 (20.0) n (%)
- Subjects with TEAE by severity: Moderate (patients with IPF; [3]): 2 (40.0) n (%)
- Subjects with TEAE by severity: Severe (patients with IPF; [3]): 1 (20.0) n (%)
- TEAEs (patients with IPF; [3]): 13 n
- safety and tolerability (patients with IPF; IPF patients, multiple inhaled doses up to 10 mg): safe and well tolerated
- TEAE profile, biochemistry, haematology, vital signs or 12-lead ECG data (patients with IPF; part 2, IPF patients): no treatment- or dose-related trends observed
- patients with a TEAE considered possibly related to the study drug (patients with IPF; part 2, diarrhoea and dysgeusia/oropharyngeal pain): two
